Test results taken from patent US12226414B2, “1-isopropyl-3-methyl-8-(pyridin-3-yl)-1,3-dihydro-2H-imidazo[4,5-c] cinnolin-2-one as selective modulators of ataxia telangiectasia mutated (ATM) kinase and uses thereof” (SUZHOU ZANRONG PHARMA LIMITED, priority 2018, dated 2025).
pIC50: −log10 of the molar value.

What was measured:
[1] = molecular target: PIK3Cβ (p110β) (Homo sapiens (Human), UniProt P42338); assay: PI3K biochemical potency assay (PI3Kβ)
Procedure: (§1) PI3Kα (p110α/p85a), PIK3C δ, PIK3Cβ (p110β), PIK3Cγ (pp110γ) kinase reaction solutions of PI3Kα (Invitrogen, Cat. No. PV4788), PIK3Cδ (Invitrogen, Cat. No. PV6452), PIK3Cβ (Millipore, Cat. No. 14-603-K), PIK3Cγ (Invitrogen, Cat. No. PR8641C) enzymes were prepared in 1× kinase buffer at 4-fold of the final concentration (final concentration: PI3Kα 0.7 nM, PIK3Cδ 3 nM, PIK3Cβ 4.8 nM, PIK3Cγ 11 nM) of each reagent in the assay. 2.5 μl of kinase solution was added to each well of the 384-well assay plate, which contains 2.5 μl of compounds with serially diluted concentration. 2× substrate solution was prepared with PIP2 substrate and ATP in 1× kinase reaction buffer at 2-fold of the final concentration of each reagent in the assay. 5 μl of substrate solution was added to each well of the assay plate to start reaction. The assay plate was incubated at room temperature for 1 hour. 5 μl reaction mix was transferred to a new 384 well plate. 5 μl of ADP-Glo reagent (Promega, Cat. No. v9102/3, Lot. No. 0000176563) was added to each well of the new assay plate to stop the reaction. The plate was shaken slowly and equilibrated for 40 minutes. 10 μl kinase detection reagents was added to each well, which was equilibrated for 60 minutes before read on a plate reader (Envision) for luminescence.

[2] = molecular target: ATM in SN38 treated HT-29 cells (Homo sapiens (Human), UniProt Q13315); assay: ATM SN-38 HT-29 cellular potency assay
Procedure: Inhibition of ATM was evaluated in SN38 treated HT-29 cells (ATCC, Cat #HTB-38) by high-Content Imaging System
HT-29 cells were trypsinized and approximately 10,000 cells were seeded per well to 96-well microplates which were incubated overnight at 37° C. and 5% CO2. Test compounds were added to the 96-well plates which were incubated at 37° C. and 5% CO2 for 1 hour. […] After the plates were rinsed 3 times with PBSA, 50 μl permeabilization buffer (0.1% Triton-X 100 in PBSA) was added and the plates were incubated for 20 minutes at room temperature. After the plates were rinsed once with PBSA, 50 μl primary antibody solution was added and the plates were incubated in at 4° C. overnight. […] The plates were rinsed with PBST 3 times and then 100 μl PBSA were added per well. The plates were sealed with black plate seals.

[3] = molecular target: ATR (Homo sapiens (Human), UniProt Q13535); assay: ATR biochemical potency assay
Procedure: ATR enzyme was made by ChemPartner (batch: CP-ATR-20161102-M2). 2× enzyme solutions were prepared in 1× kinase base buffer. 10 μl of 2× enzyme solution (final concentration: 2.5 nM) was added to each well of the 384-well assay plate containing 60 nl compound in each well. The plate was incubated at room temperature for 10 minutes. 2× peptide solutions were prepared with FAM-labeled peptide and ATP in the 1× kinase base buffer. 10 μl of 2× peptide solution was added to each well of the 384-well assay plate, which was incubated at 28° C. for 240 min. 40 μl of stop buffer was added to stop reaction. Data were collected by Caliper.

[4] = molecular target: PI3Kα (p110α/p85a) (Homo sapiens (Human), UniProt P42336); assay: PI3K biochemical potency assay (PI3Kα)
Procedure: as §1

[5] = molecular target: mTOR (Homo sapiens (Human), UniProt P42345); assay: mTOR biochemical potency assay
Procedure: Solution of mTOR enzymes (Millipore, Cat. No. 14-770, Lot. No. 2052551) was prepared in 1× kinase buffer at 4-fold of the final concentration (final concentration: 6 nM) in the assay. 2.5 μl of kinase solution was added to each well of the 384-well assay plate, which contains 2.5 μl of compounds with serially diluted concentration. 2× substrate solution was prepared with ULight-4E-BP1 (Thr37/46) Peptide (PE, Cat. No. TRF0128-M, Lot. No. 1695274) and ATP in 1× kinase reaction buffer at 2-fold of the final concentration of each reagent in the assay. 5 μl of substrate solution was added to each well of the assay plate to start reaction. The assay plate was incubated at room temperature for 30 minutes. Detection solution of kinase quench buffer (EDTA) and Eu-anti-phospho-4E-BP1 antibody (Thr37/46) (PE, Cat. No. TRF0216-M, Lot. No. 1571838) were prepared at 2-fold the desired final concentrations of each reagent in Lance detection buffer. 10 μl of detection solution buffer was added to each well of the assay plate. The assay plate was equilibrated for 60 minutes at room temperature before read on a plate reader (Lance signal (665 nm) from Envision program).

[6] = molecular target: ATM (Homo sapiens (Human), UniProt Q13315); assay: ATM biochemical potency assay
Procedure: The plate was incubated at room temperature for 10 minutes. […] Data was collected by Caliper.

[7] = molecular target: PIK3Cδ (Homo sapiens (Human), UniProt O00329); assay: PI3K biochemical potency assay (PI3Kδ)
Procedure: as §1

[8] = molecular target: PIK3Cγ (pp110γ) (Homo sapiens (Human), UniProt P48736); assay: PI3K biochemical potency assay (PI3Kγ)
Procedure: as §1

Sequence of PIK3Cγ (pp110γ) (P48736 whole entry): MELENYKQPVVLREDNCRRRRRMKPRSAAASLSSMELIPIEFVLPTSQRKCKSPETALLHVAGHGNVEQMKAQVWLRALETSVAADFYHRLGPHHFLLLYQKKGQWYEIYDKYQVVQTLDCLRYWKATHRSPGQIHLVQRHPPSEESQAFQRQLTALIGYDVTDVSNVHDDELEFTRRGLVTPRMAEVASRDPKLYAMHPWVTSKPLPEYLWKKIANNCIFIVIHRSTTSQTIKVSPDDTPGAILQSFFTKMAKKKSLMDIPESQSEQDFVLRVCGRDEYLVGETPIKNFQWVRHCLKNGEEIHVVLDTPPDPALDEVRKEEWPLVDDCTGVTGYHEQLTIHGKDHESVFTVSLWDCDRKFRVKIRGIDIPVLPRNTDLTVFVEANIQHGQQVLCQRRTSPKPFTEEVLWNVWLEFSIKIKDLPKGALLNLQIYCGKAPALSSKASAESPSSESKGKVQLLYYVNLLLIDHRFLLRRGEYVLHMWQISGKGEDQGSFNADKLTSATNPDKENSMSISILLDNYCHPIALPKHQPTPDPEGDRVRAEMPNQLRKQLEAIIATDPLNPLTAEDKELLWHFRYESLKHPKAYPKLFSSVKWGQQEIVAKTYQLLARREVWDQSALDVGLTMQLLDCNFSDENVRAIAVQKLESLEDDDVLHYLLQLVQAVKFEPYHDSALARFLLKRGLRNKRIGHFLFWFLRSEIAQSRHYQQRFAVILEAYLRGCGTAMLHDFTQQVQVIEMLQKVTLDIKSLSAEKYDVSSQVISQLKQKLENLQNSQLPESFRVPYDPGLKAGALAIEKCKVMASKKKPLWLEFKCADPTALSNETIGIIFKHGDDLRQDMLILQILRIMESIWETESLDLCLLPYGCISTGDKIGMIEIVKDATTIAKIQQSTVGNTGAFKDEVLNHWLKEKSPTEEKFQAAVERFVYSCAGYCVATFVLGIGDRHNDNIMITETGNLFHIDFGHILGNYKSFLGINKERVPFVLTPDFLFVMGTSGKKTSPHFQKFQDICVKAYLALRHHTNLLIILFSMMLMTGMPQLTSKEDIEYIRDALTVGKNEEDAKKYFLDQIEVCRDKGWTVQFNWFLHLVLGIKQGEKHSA
Sequence of ATR (Q13535 whole entry, looked up): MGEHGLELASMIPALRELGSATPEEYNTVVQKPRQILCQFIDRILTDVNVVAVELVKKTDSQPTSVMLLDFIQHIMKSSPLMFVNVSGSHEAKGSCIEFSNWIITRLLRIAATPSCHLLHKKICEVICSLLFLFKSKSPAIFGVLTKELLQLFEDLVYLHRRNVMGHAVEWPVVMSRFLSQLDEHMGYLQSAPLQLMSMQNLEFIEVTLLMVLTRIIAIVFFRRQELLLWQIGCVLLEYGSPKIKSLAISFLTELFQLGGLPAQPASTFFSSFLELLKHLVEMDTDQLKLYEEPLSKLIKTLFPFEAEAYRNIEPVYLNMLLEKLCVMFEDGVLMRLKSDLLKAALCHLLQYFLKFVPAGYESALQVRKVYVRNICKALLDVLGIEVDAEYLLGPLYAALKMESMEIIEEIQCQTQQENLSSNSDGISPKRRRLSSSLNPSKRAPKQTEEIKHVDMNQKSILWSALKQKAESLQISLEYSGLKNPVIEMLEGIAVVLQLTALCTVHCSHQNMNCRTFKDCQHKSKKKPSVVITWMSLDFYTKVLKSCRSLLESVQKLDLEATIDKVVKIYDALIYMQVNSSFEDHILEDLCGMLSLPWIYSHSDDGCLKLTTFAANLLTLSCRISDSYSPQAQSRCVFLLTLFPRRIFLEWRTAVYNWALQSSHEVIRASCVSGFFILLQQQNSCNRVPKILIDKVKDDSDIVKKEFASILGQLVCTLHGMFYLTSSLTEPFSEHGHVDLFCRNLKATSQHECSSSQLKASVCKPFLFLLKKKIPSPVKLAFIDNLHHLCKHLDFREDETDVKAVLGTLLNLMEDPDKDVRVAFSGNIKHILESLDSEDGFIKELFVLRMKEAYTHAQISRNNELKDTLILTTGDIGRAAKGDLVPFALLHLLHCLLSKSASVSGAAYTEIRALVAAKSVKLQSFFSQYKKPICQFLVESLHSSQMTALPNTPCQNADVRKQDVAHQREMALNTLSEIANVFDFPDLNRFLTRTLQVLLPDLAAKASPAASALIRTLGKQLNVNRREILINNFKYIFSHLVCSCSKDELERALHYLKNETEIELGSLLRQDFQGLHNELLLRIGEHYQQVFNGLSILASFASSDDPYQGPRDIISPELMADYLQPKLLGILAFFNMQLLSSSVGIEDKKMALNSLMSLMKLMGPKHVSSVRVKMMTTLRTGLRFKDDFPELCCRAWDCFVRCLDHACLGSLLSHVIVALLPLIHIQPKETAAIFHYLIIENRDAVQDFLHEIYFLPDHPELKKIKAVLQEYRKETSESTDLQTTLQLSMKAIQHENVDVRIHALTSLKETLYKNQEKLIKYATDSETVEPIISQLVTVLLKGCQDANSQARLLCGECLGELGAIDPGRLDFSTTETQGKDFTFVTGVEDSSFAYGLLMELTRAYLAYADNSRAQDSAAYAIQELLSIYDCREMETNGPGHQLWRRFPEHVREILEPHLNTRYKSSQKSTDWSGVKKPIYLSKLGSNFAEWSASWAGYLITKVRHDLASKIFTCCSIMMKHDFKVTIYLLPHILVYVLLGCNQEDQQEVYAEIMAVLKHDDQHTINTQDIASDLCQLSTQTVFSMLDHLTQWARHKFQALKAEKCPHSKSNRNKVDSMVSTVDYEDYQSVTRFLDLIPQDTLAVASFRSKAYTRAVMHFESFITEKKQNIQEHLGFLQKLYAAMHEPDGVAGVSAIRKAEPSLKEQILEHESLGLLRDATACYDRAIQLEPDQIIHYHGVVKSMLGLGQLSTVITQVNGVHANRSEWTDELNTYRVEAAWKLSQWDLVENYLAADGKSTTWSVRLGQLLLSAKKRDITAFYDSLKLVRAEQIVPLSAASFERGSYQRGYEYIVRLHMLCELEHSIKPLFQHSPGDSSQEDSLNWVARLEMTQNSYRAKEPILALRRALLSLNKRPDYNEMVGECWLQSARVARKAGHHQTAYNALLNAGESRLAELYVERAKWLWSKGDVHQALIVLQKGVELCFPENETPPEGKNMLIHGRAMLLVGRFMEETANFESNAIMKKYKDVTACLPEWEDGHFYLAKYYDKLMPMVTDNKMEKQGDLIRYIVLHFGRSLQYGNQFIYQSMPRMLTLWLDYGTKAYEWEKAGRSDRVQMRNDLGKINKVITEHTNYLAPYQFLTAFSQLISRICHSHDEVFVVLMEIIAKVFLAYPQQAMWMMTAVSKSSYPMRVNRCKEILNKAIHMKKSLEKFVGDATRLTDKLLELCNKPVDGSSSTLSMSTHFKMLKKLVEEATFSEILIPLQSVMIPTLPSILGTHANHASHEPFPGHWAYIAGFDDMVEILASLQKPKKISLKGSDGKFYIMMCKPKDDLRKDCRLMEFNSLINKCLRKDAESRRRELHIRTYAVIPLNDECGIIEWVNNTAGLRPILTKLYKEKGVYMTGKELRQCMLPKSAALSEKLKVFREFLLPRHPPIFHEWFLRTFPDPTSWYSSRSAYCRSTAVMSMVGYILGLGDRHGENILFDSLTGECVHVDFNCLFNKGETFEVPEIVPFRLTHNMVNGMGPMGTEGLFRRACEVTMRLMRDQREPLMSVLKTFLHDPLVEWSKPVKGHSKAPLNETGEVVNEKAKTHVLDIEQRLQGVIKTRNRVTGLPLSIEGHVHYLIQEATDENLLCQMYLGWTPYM
Sequence of ATR (Q8WXE1 whole entry partner, looked up): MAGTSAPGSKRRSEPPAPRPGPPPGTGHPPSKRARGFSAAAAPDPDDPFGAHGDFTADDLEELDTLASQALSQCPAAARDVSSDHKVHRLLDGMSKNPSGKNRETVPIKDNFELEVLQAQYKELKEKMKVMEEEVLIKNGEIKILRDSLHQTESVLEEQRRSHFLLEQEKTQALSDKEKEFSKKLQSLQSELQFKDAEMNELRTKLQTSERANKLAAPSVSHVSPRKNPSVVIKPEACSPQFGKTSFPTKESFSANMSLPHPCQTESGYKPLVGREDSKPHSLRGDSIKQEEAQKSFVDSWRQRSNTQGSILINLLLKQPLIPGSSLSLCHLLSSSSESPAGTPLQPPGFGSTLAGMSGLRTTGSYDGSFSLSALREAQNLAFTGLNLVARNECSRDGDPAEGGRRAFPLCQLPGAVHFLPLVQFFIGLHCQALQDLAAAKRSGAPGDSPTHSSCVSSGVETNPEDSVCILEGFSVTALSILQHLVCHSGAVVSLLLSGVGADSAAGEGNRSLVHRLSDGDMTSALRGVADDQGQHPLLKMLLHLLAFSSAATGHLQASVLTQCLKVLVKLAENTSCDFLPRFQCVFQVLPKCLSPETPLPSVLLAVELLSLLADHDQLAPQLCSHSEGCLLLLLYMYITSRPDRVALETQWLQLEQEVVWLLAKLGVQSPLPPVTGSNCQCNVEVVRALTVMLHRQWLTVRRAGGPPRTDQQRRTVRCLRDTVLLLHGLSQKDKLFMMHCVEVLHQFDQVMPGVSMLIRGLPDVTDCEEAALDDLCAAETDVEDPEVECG

pIC50 [1] | pIC50 [2] | pIC50 [3] | pIC50 [4] | pIC50 [5] | pIC50 [6] | pIC50 [7] | pIC50 [8] | SMILES
< 5.00 | 8.82 | < 5.00 | < 5.00 | < 5.00 | 8.72 | < 5.00 | < 5.00 | CC(C)n1c(=O)n(C)c2nnc3cc(F)c(-c4ccc(OCCCN5CCCCC5)nc4)cc3c21 [Example 1, 7-fluoro-1-isopropyl-3-methyl-8-(6-(3-(piperidin-1-yl)propoxy)pyridin-3-yl)-1H-imidazo[4,5-c]cinnolin-2(3H)-one]
< 5.00 | 6.57 | < 5.00 | < 5.00 | < 5.00 | 8.37 | < 5.00 | < 5.00 | CC(C)n1c(=O)n(C)c2nnc3cc(F)c(-c4ccc(OCCCN(C)C)nc4)cc3c21 [Example 2, 8-(6-(3-(dimethylamino)propoxy)pyridin-3-yl)-7-fluoro-1-isopropyl-3-methyl-1H-imidazo[4,5-c]cinnolin-2(3H)-one]
< 5.00 |  | < 5.00 | < 5.00 | < 5.00 | 8.00 | < 5.00 | < 5.00 | CC(C)n1c(=O)n(C)c2nnc3cc(F)c(-c4ccc(N5CCC(N(C)C)CC5)nc4)cc3c21 [Example 4, 8-(6-(4-(dimethylamino)piperidin-1-yl)pyridin-3-yl)-7-fluoro-1-isopropyl-3-methyl-1H-imidazo[4,5-c]cinnolin-2(3H)-one]
< 5.00 |  | < 5.00 | < 5.00 | < 5.00 | 7.19 | < 5.00 | < 5.00 | CC(C)n1c(=O)n(C)c2nnc3cc(F)c(-c4ccc(N5CCC(CN(C)C)C5)nc4)cc3c21 (centres unmarked) [Example 5, 8-(6-(3-((dimethylamino)methyl)pyrrolidin-1-yl)pyridin-3-yl)-7-fluoro-1-isopropyl-3-methyl-1H-imidazo[4,5-c]cinnolin-2(3H)-one]
< 5.00 | 7.15 | < 5.00 | < 5.00 | < 5.00 | 7.00 | < 5.00 | < 5.00 | CC(C)n1c(=O)n(C)c2nnc3cc(F)c(-c4ccc(COCCN(C)C)nc4)cc3c21 [Example 6, 8-(6-((2-(dimethylamino)ethoxy)methyl)pyridin-3-yl)-7-fluoro-1-isopropyl-3-methyl-1H-imidazo[4,5-c]cinnolin-2(3H)-one]
< 5.00 |  | < 5.00 | < 5.00 | < 5.00 | 7.29 | < 5.00 | < 5.00 | CC(C)n1c(=O)n(C)c2nnc3cc(F)c(-c4ccc(COCCN5CCCC5)nc4)cc3c21 [Example 8, 7-fluoro-1-isopropyl-3-methyl-8-(6-((2-(pyrrolidin-1-yl)ethoxy)methyl)pyridin-3-yl)-1H-imidazo[4,5-c]cinnolin-2(3H)-one]
< 5.00 |  | < 5.00 | < 5.00 | < 5.00 | 7.46 | < 5.00 | < 5.00 | CC(C)n1c(=O)n(C)c2nnc3cc(F)c(-c4ccc(COCCN5CC[C@@H](F)C5)nc4)cc3c21 [Example 9, (R)-7-fluoro-8-(6-((2-(3-fluoropyrrolidin-1-yl)ethoxy)methyl)pyridin-3-yl)-1-isopropyl-3-methyl-1H-imidazo[4,5-c]cinnolin-2(3H)-one]
< 5.00 |  | < 5.00 | < 5.00 | < 5.00 | 6.44 | < 5.00 | < 5.00 | CC(C)n1c(=O)n(C)c2nnc3cc(F)c(-c4ccc(C(=O)NCCN(C)C)nc4)cc3c21 [Example 12, N-(2-(dimethylamino)ethyl)-5-(7-fluoro-1-isopropyl-3-methyl-2-oxo-2,3-dihydro-1H-imidazo[4,5-c]cinnolin-8-yl)picolinamide]
 |  |  |  |  | 8.15 |  |  | CC(C)n1c(=O)n(C)c2nnc3cc(F)c(-c4ccc(OCCCN(C)C)nc4F)cc3c21 [Example 17, 8-(6-(3-(dimethylamino)propoxy)-2-fluoropyridin-3-yl)-7-fluoro-1-isopropyl-3-methyl-1,3-dihydro-2H-imidazo[4,5-c]cinnolin-2-one]
 |  |  |  |  | 8.32 |  |  | Cn1c(=O)n(C2CCOCC2)c2c3cc(-c4ccc(OCCCN5CCCCC5)nc4)c(F)cc3nnc21 [Example 18, 7-fluoro-3-methyl-8-(6-(3-(piperidin-1-yl)propoxy)pyridin-3-yl)-1-(tetrahydro-2H-pyran-4-yl)-1H-imidazo[4,5-c]cinnolin-2(3H)-one]
 |  |  |  |  | 7.89 |  |  | CN(C)CCCOc1ccc(-c2cc3c(cc2F)nnc2c3n(C3CCOCC3)c(=O)n2C)cn1 [Example 19, 8-(6-(3-(dimethylamino)propoxy)pyridin-3-yl)-7-fluoro-3-methyl-1-(tetrahydro-2H-pyran-4-yl)-1H-imidazo[4,5-c]cinnolin-2(3H)-one]
 |  |  |  |  | 8.22 |  |  | Cn1c(=O)n(C2CCOCC2)c2c3cc(-c4ccc(OCCCN5CCCC5)nc4)c(F)cc3nnc21 [Example 20, 7-fluoro-3-methyl-8-(6-(3-(pyrrolidin-1-yl)propoxy)pyridin-3-yl)-1-(tetrahydro-2H-pyran-4-yl)-1H-imidazo[4,5-c]cinnolin-2(3H)-one]
 |  |  |  |  | 7.01 |  |  | CN(C)CC1CCN(c2ccc(-c3cc4c(cc3F)nnc3c4n(C4CCOCC4)c(=O)n3C)cn2)C1 (centres unmarked) [Example 21, 8-(6-(3-((dimethylamino)methyl)pyrrolidin-1-yl)pyridin-3-yl)-7-fluoro-3-methyl-1-(tetrahydro-2H-pyran-4-yl)-1H-imidazo[4,5-c]cinnolin-2(3H)-one]
 |  |  |  |  | < 6.00 |  |  | Cn1c(=O)n(C2CCOCC2)c2c3cc(-c4ccc(OCCCN5CCC(F)CC5)nc4)c(F)cc3nnc21 [Example 24, 7-fluoro-8-(6-(3-(4-fluoropiperidin-1-yl)propoxy)pyridin-3-yl)-3-methyl-1-(tetrahydro-2H-pyran-4-yl)-1H-imidazo[4,5-c]cinnolin-2(3H)-one]
 |  |  |  |  | < 6.00 |  |  | Cn1c(=O)n(C2CCOCC2)c2c3cc(-c4ccc(OCCCN5CC[C@@H](F)C5)nc4)c(F)cc3nnc21 [Example 25, (R)-7-fluoro-8-(6-(3-(3-fluoropyrrolidin-1-yl)propoxy)pyridin-3-yl)-3-methyl-1-(tetrahydro-2H-pyran-4-yl)-1H-imidazo[4,5-c]cinnolin-2(3H)-one]

SMILES | pIC50 [1] | pIC50 [2] | pIC50 [3] | pIC50 [4] | pIC50 [5] | pIC50 [6] | pIC50 [7] | pIC50 [8]
CC(C)n1c(=O)n(C)c2nnc3cc(F)c(-c4ccc(OCCCN5CCCC5)nc4)cc3c21 [Example 3, 7-fluoro-1-isopropyl-3-methyl-8-(6-(3-(pyrrolidin-1-yl)propoxy)pyridin-3-yl)-1H-imidazo[4,5-c]cinnolin-2(3H)-one] | < 5.00 | 7.96 | < 5.00 | < 5.00 | < 5.00 | 8.32 | < 5.00 | < 5.00
CC(C)n1c(=O)n(C)c2nnc3cc(F)c(-c4ccc(COCCN5CCC(F)CC5)nc4)cc3c21 [Example 10, 7-fluoro-8-(6-((2-(4-fluoropiperidin-1-yl)ethoxy)methyl)pyridin-3-yl)-1-isopropyl-3-methyl-1H-imidazo[4,5-c]cinnolin-2(3H)-one] | < 5.00 |  | < 5.00 | < 5.00 | < 5.00 |  | < 5.00 | < 5.00
